pEC50, pIC50: −log10 of the molar value. Like-named read-outs stand apart in the source and are kept apart here.
Tests used:
Assay type in all cases: cell-based
[1] = system: Huh-7 cells harboring replicon 2A; assay: Cytotoxicity in replicon 2A cells; conditions: HCV subtype 2A replicon
Method: (§1) Compounds were also tested in Huh-7 cells harboring sub-genomic reporter replicons derived from HCV subtypes 1B and 2A (ref.: Stuyver, L. J.; Whitaker, T.; McBrayer, T. R.; Hernandez-Santiago, B. I.; Lostia, S.; Tharnish, P. M.; Ramesh, M.; Chu, C. K.; Jordan, R.; Shi, J. X.; Rachakonda, S.; Watanabe, K. A.; Otto, M. J.; Schinazi, R. F. Antimicrob. Agents Chemother. 2003, 47, 244-254).

[2] = system: BJ; assay: Cytostatic/cytotoxic MTT assay, BJ fibroblasts; conditions: Homo sapiens, 72 h, read-out: MTT, IC50 BJ
Procedure, shortened: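 IC50 values reflect the drug concentration halving cell growth in a 72 h MTT assay. Readings were taken at 540 nm after SDS lysis, using duplicate four-fold dilution series on cells plated a day earlier.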

[3] = system: A549; assay: Cytostatic/cytotoxic MTT assay, A549; conditions: Homo sapiens, read-out: MTT, IC50 A549
Procedure, shortened: (§2)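 Optical density at 540 nm of SDS-dissolved formazan gives the read-out, with IC50 derived from dose-response curves. Cells (25,000-30,000/well) are treated for 72 h at 37 °C with four-fold compound dilutions, tested in duplicate, then stained with MTT for 1-4 h.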

[4] = system: K562; assay: Cytostatic/cytotoxic MTT assay, K562; conditions: Homo sapiens, read-out: MTT, IC50 K562
Procedure, shortened: as §2

[5] = system: HeLa S3; assay: XTT cytotoxicity assay, HeLa S3; conditions: Homo sapiens, read-out: XTT, IC50 HeLa S3
Procedure, shortened: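 Cells seeded at 10,000 per well, compounds added after 24 h and incubated 72 h, then XTT (with N-methyl dibenzopyrazine methyl sulfate) for 2 h; absorbance at 495 nm. IC50 by non-linear regression.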

[6] = system: HCV subtype 1B replicon in Huh-7 cells; assay: HCV sub-genomic reporter replicon assay, subtype 1B; conditions: Hepatitis C virus
Method: as §1

[7] = Huh-7 cells, HCV subtype 1B replicon, read-out: Replicon 1B EC50
[8] = Huh-7, read-out: Replicon 1B EC50

Compound	CC50 [1] [µM]	pIC50 ([2]; non-malignant fibroblasts)	pIC50 ([3]; A549, 72 h incubation)	pIC50 ([4]; K562, 72 h incubation)	pIC50 ([5]; HeLa S3, 72 h incubation)	pEC50 [6, 7]	pIC50 [2]	pIC50 ([3]; A549, 72 h)	pIC50 ([4]; K562, 72 h)	pIC50 ([5]; HeLa S3, 72 h)	pEC50 [6, 8]
CN(C)c1ncnc2c1c(-c1ccoc1)cn2[C@@H]1O[C@H](CO)[C@@H](O)[C@H]1O [Compound 4b, 4-Dimethylamino-5-(furan-3-yl)-7-(β-D-ribofuranosyl)-7H-pyrrolo[2,3-d]pyrimidine]	> 44	4.00	< 4.70	5.81	5.04	5.10	–	–	–	–	–
CN(C)c1ncnc2c1c(-c1cccs1)cn2[C@@H]1O[C@H](CO)[C@@H](O)[C@H]1O [Compound 4c, 4-Dimethylamino-7-(β-D-ribofuranosyl)-5-(thiophen-2-yl)-7H-pyrrolo[2,3-d]pyrimidine]	> 44	< 4.00	< 4.70	< 4.70	< 4.70	4.78	–	–	–	–	–
CN(C)c1ncnc2c1c(-c1ccsc1)cn2[C@@H]1O[C@H](CO)[C@@H](O)[C@H]1O [Compound 4d, 4-Dimethylamino-7-(β-D-ribofuranosyl)-5-(thiophen-3-yl)-7H-pyrrolo[2,3-d]pyrimidine]	> 44	< 4.00	< 4.70	6.28	< 4.82	4.42	–	–	–	–	–
CN(C)c1ncnc2c1c(-c1ccccc1)cn2[C@@H]1O[C@H](CO)[C@@H](O)[C@H]1O [Compound 4e, 4-Dimethylamino-5-phenyl-7-(β-D-ribofuranosyl)-7H-pyrrolo[2,3-d]pyrimidine]	> 44	< 4.00	< 4.00	< 4.70	< 4.70	4.57	–	–	–	–	–
CN(C)c1ncnc2c1c(-c1cc3ccccc3o1)cn2[C@@H]1O[C@H](CO)[C@@H](O)[C@H]1O [Compound 4f, 5-(Benzofuran-2-yl)-4-dimethylamino-7-(β-D-ribofuranosyl)-7H-pyrrolo[2,3-d]pyrimidine]	> 44	< 4.00	< 4.70	< 4.70	< 4.70	4.72	–	–	–	–	–
C#Cc1cn([C@@H]2O[C@H](CO)[C@@H](O)[C@H]2O)c2ncnc(N(C)C)c12 [Compound 4g, 4-Dimethylamino-5-ethynyl-7-(β-D-ribofuranosyl)-7H-pyrrolo[2,3-d]pyrimidine]	> 44	6.39	6.41	6.96	6.09	7.15	–	–	–	–	–
CN(C)c1ncnc2c1c(I)cn2[C@@H]1O[C@H](CO)[C@@H](O)[C@H]1O [Compound 4h, 4-Dimethylamino-5-iodo-7-(β-D-ribofuranosyl)-7H-pyrrolo[2,3-d]pyrimidine]	> 44	4.34	6.47	7.15	6.72	6.16	–	–	–	–	–
Cc1ncnc2c1c(-c1ccco1)cn2[C@@H]1O[C@H](CO)[C@@H](O)[C@H]1O [Compound 5a, 5-(Furan-2-yl)-4-methyl-7-(β-D-ribofuranosyl)-7H-pyrrolo[2,3-d]pyrimidine]	43.6	7.15	6.96	7.40	5.88	7.15	–	–	–	–	–
Cc1ncnc2c1c(-c1ccoc1)cn2[C@@H]1O[C@H](CO)[C@@H](O)[C@H]1O [Compound 5b, 5-(Furan-3-yl)-4-methyl-7-(β-D-ribofuranosyl)-7H-pyrrolo[2,3-d]pyrimidine]	> 44	4.05	< 4.70	< 4.70	< 4.70	5.35	–	–	–	–	–
Cc1ncnc2c1c(-c1cccs1)cn2[C@@H]1O[C@H](CO)[C@@H](O)[C@H]1O [Compound 5c, 4-Methyl-7-(β-D-ribofuranosyl)-5-(thiophen-2-yl)-7H-pyrrolo[2,3-d]pyrimidine]	> 44	< 4.00	< 4.70	< 4.70	< 4.82	5.18	–	–	–	–	–
Cc1ncnc2c1c(-c1ccsc1)cn2[C@@H]1O[C@H](CO)[C@@H](O)[C@H]1O [Compound 5d, 4-Methyl-7-(β-D-ribofuranosyl)-5-(thiophen-3-yl)-7H-pyrrolo[2,3-d]pyrimidine]	> 44	4.01	< 4.70	6.49	4.84	5.35	–	–	–	–	–
Cc1ncnc2c1c(-c1ccccc1)cn2[C@@H]1O[C@H](CO)[C@@H](O)[C@H]1O [Compound 5e, 4-Methyl-5-phenyl-7-(β-D-ribofuranosyl)-7H-pyrrolo[2,3-d]pyrimidine]	> 44	< 4.00	< 4.70	< 4.70	< 4.70	4.46	–	–	–	–	–
Cc1ncnc2c1c(-c1cc3ccccc3o1)cn2[C@@H]1O[C@H](CO)[C@@H](O)[C@H]1O [Compound 5f, 5-(Benzofuran-2-yl)-4-methyl-7-(β-D-ribofuranosyl)-7H-pyrrolo[2,3-d]pyrimidine]	> 44	4.03	< 4.70	4.71	< 4.70	5.17	–	–	–	–	–
C#Cc1cn([C@@H]2O[C@H](CO)[C@@H](O)[C@H]2O)c2ncnc(C)c12 [Compound 5g, 5-Ethynyl-4-methyl-7-(β-D-ribofuranosyl)-7H-pyrrolo[2,3-d]pyrimidine]	> 44	7.30	4.72	5.16	4.83	6.64	–	–	–	–	–
COc1ncnc2c1ccn2[C@@H]1O[C@H](CO)[C@@H](O)[C@H]1O [RC1, reference compound]	> 44	< 4.00	< 4.70	< 4.70	< 4.70	4.36	–	–	–	–	–
CSc1ncnc2c1ccn2[C@@H]1O[C@H](CO)[C@@H](O)[C@H]1O [RC2, reference compound]	> 44	–	–	–	–	–	< 4.00	< 4.70	< 4.70	4.92	4.52
CNc1ncnc2c1ccn2[C@@H]1O[C@H](CO)[C@@H](O)[C@H]1O [RC3, reference compound]	> 44	4.04	< 4.70	< 4.70	< 4.70	6.09	–	–	–	–	–
CN(C)c1ncnc2c1ccn2[C@@H]1O[C@H](CO)[C@@H](O)[C@H]1O [RC4, reference compound]	> 44	5.28	< 4.70	5.28	4.97	6.57	–	–	–	–	–
Cc1ncnc2c1ccn2[C@@H]1O[C@H](CO)[C@@H](O)[C@H]1O [RC5, 4-Methyl-7-(β-D-ribofuranosyl)-7H-pyrrolo[2,3-d]pyrimidine, reference compound]	0.12	–	–	–	–	–	7.15	7.52	8.00	7.70	7.70

Reference: patent publication US9586986B2, “Substituted 7-deazapurine ribonucleosides for therapeutic uses” (Institute of Organic Chemistry and Biochemistry ASCR, v.v.i., priority 2014, dated 2017)
